Here are results for six compounds from PMC8923309, “Permeability evaluation of gemcitabine-CPP6 conjugates in Caco-2 cells” (ADMET & DMPK, 2020).

For series [1], the system named is Caco-2 monolayer. In words: Transport across Caco-2 monolayer (permeability assay). The conditions noted are these: HPLC-UV; for sum of the CPP absorbed from the apical side and found in the basolateral chamber at the end of the experiment: 60 μM apical in HBSS pH 7.4, 37 °C, remainder retained in cells or degraded; for percentage of amount applied apically recovered in the basolateral compartment at 120 min / sum of the CPP absorbed from the apical side and found in the basolateral chamber at the end of the experiment: 120 min.
Method: (§1) A monolayer of Caco-2 cells was established in a 12-well plate [11]. […] Firstly, filters were pre-wet with 0.1 mL of culture medium for 2 minutes. Cells were seeded in the apical side (0.5 mL of cells per well, cell density of 4.0 x 10^5 cells/mL). The basolateral compartment was filled with 1.5 mL of culture medium and plates were incubated for 6 h (5 % CO2 humidified atmosphere at 37 °C). Then, to remove non-adherent cells and reduce the risk of multilayer formation, the medium in the apical side was removed and replaced with fresh medium. Cells were maintained for 29 days, replacing the culture medium from both compartments every other day.
(§2) All the solutions used were pre-warmed to 37 °C. Culture medium was replaced with fresh medium 24 h prior the beginning of the experiment. Next, this culture medium was removed first from the basolateral and then from the apical compartment. The apical compartment was carefully washed and then filled with 0.5 mL of Hank’s Balanced Salt Solution (HBSS, pH 7.4) and the basolateral compartment was also filled with 1.5 mL of HBSS. […] All tested compounds were prepared in HBBS (60 μM) and added to the apical compartment. Throughout this assay, the final volume was 0.4 mL in the apical compartment and 1.2 mL in the basolateral chamber. At t = 0 min, 0.45 mL of the donor solution was added to the apical compartment and a sample (0.05 mL) was immediately taken. The plate was incubated (lid-covered) at 37 °C under gentle shaking (190 rpm). Every 30 min for the next 2 h, a sample of 0.6 mL was taken from the basolateral compartment and replaced with the same volume of HBSS.
(§3) The concentrations of the evaluated compound in the basolateral and apical compartments were determined by high-performance liquid chromatography (HPLC) (VWR International LCC, LaChrom Ultra, Pennsylvania, USA). Elution was performed with a variable gradient of acetonitrile (ACN) in water containing 0.05 % trifluoroacetic acid (TFA), at a 0.7 mL/min flow and detection at variable wavelength (243 nm for gemcitabine and 220 nm for peptides and conjugates).

For series [2], the system named is Caco-2 monolayer.
Method: as §1, §2, §3
A further series deals with Caco-2 cells. Put plainly: MTT cytotoxicity assay (cell growth inhibition). It is filed as cell-based. The conditions noted are these: Homo sapiens, 72 h incubation, 0.1-100000 μM, absorbance 570 nm, triplicate. Here is the method: Human colon adenocarcinoma cell line Caco-2 (passage 25-47, kindly provided by the Department of Biomedicine of the Faculty of Medicine of University of Porto, and previously acquired via ATCC) was routinely maintained in Dulbecco’s Modified Eagle’s Medium (DMEM) supplemented with 10 % fetal bovine serum (FBS), L-glutamine and antibiotics penicillin and streptomycin. Cells were cultured at 37 °C in a 5 % CO2 humidified atmosphere. Culturing medium was replaced every 2-3 days and cell subculture was conducted once a week by trypsinization (0.25 % trypsin-EDTA wt/vol, 5, min, 37, °C).
The cell growth inhibitory activity of gemcitabine in Caco-2 cells was assessed with the MTT assay. Briefly, a growth curve was traced to determine the best cell density for the assay. […] Finally, MTT solution was removed, DMSO (100 μL per well) was added to solubilize the formazan crystals formed by viable cells and absorbance was measured at 570 nm in an automated microplate reader (Sinergy HT, Biotek Instruments Inc, Vermont, USA). […]
Gemcitabine cytotoxicity results were compared with the untreated control (mean of values was set to 100 %) and expressed as mean ± SEM. The statistical significance between different gemcitabine concentrations was analyzed in GraphPad Prism 7 (San Diego, EUA) using one-way ANOVA (p<0.05).

On the set-up of series [3]: method as in PMID 16807468. The conditions noted are these: administered intravenously; rapid deamination by cytidine deaminase in serum; cited from earlier work. The text has this: Gemcitabine (Gem, dFdC or 2′,2′-difluoro-2′-deoxycytidine, Scheme 1) is a cytotoxic nucleoside analogue used as a chemotherapeutic drug.
[4] abbreviates: Caco-2 monolayer (29 days, Transwell COL PTFE 0.4 μm), apical to basolateral, 60 μM in HBSS pH 7.4, 37 °C, 190 rpm.

Numbered stars: 1 amine (or outer) side, 2 acyl side, 3 side chain; on linkers, the order of the positions; unused ones are H or OH. Ends that are not written are not given here. Peptide text beside a SMILES is read from it. * marks the point of attachment. X1 = O=c1nc(N*)ccn1[C@@H]1O[C@H](CO)[C@@H](O)C1(F)F; Suc = O=C(CCC(=O)[*:2])[*:1]

Regarding `CSCC[C@H](NC(=O)[C@@H](NC(=O)[C@@H]1CCCN1C(=O)[C@H](CC(C)C)NC(=O)[C@H](CCCCN)NC(=O)[C@H](Cc1c[nH]c2ccccc12)NC(=O)CCC(=O)Nc1ccn([C@@H]2O[C@H](CO)[C@@H](O)C2(F)F)c(=O)n1)C(C)C)C(N)=O` [Gem-CPP6-1] ({X1-Suc}-WKLPVM-NH2), the “percentage of amount applied apically recovered in the basolateral compartment at 120 min” value (“percentage … at 120 min” for short) in the series on Caco-2 monolayer [1] (setting [4]) was found to be 9%.
Take `CSCC[C@H](NC(=O)[C@@H](NC(=O)[C@@H]1CCCN1C(=O)[C@H](CC(C)C)NC(=O)[C@H](CCCCN)NC(=O)CCC(=O)Nc1ccn([C@@H]2O[C@H](CO)[C@@H](O)C2(F)F)c(=O)n1)C(C)C)C(=O)N[C@@H](Cc1c[nH]c2ccccc12)C(N)=O` [Gem-CPP6-2] ({X1-Suc}-KLPVMW-NH2): the “percentage … at 120 min” value in the series on Caco-2 monolayer [1] (setting [4]) is given as “Approximately 31%”. In the series on Caco-2 monolayer [2], the “extent of permeation relative to Gem-CPP6-1 and Gem-CPP6-3 conjugates” value is on record as “about 3 fold”.
Compound `Nc1ccn([C@@H]2O[C@H](CO)[C@@H](O)C2(F)F)c(=O)n1` [Gemcitabine, 2′,2′-difluoro-2′-deoxycytidine] gave an IC50 in the series on Caco-2 cells of 52.4 µM. Moreover, the half-life in series [3] was 8 to 17 min. The “percentage found in the basolateral side after 30 minutes” value with Caco-2 monolayer [1] (Caco-2 monolayer (29 days, Transwell COL PTFE 0.4 μm), apical to basolateral, 60 μM in HBSS pH 7.4, 37 °C, 190 rpm, 30 min) stood at 3%. Further, in the series with Caco-2 monolayer [1] (setting [4]), the “percentage … at 120 min” value was found to be 18%. The “additional percentage of drug crossing the membrane from 90 min (plateau) until 120 min” value in the series on Caco-2 monolayer [1] (Caco-2 monolayer, apical to basolateral, 60 μM in HBSS pH 7.4, 37 °C, between 90 and 120 min) is on record as 1%.
KLPVMW-NH2 [CPP6-2]: the “percentage … at 120 min” value in the series with Caco-2 monolayer [1] (setting [4]) came to 40%. Moreover, the “sum of the CPP absorbed from the apical side and found in the basolateral chamber at the end of the experiment” value (shortened to “sum of the CPP absorbed”) in the series with Caco-2 monolayer [1] (Caco-2 monolayer) is reported as 84%.
On to WKLPVM-NH2 [CPP6-1], for which the “percentage … at 120 min” value with Caco-2 monolayer [1] (setting [4]) is listed as 33%. In the series with Caco-2 monolayer [1] (Caco-2 monolayer), the “sum of the CPP absorbed” value is reported as 50%.
On to WVPTLK [CPP6-3], for which, in the series with Caco-2 monolayer [1] (setting [4]), the “percentage … at 120 min” value came to 37%. For the same compound, the “sum of the CPP absorbed” value in the series on Caco-2 monolayer [1] (Caco-2 monolayer) came to 75%.

What is called IC50 is the point on the concentration scale where inhibition reaches its midpoint. A low value points to greater potency. In general, half-life refers to how long it takes for the measured level to halve.
